From US10730889B2, “Amido spirocyclic amide and sulfonamide derivatives” (Forma TM, LLC, priority 2012, dated 2020)
Where two headings read alike, the source gives them in different places.

Key:
NAMPT = NAMPT (Homo sapiens (Human), UniProt P43490); assay: Biochemical inhibition assay (NAMPT enzymatic reaction, NMN quantified by mass spectrometry)
A2780 cells = assay: In-vitro cell proliferation assay (SRB, 72 hours); type: cell-based; settings: Homo sapiens, A2780, 72 h, read-out: Cell Proliferation (IC50)

Sequence of NAMPT (P43490 whole entry): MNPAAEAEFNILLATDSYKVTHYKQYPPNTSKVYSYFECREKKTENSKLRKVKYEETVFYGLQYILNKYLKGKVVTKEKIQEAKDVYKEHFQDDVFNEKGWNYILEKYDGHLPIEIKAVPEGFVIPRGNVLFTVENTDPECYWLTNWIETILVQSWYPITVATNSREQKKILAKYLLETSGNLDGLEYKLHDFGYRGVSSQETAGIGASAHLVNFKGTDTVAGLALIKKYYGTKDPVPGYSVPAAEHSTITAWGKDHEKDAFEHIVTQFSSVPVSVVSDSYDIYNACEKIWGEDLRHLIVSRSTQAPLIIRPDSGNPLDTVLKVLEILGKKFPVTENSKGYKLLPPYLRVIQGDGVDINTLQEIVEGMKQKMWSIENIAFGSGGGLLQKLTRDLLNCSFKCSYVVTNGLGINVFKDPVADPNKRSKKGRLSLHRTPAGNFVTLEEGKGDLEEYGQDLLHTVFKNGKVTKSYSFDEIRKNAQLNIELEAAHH

SMILES	IC50 (NAMPT)	IC50 (A2780 cells; A2780 cells, 72 hours, SRB)	IC50 (A2780 cells)
CC(C)(C)OC(=O)N1CCC2(CC1)CC2CNC(=O)c1cnn2nccc2c1 (centres unmarked) [Example 383, tert-Butyl 2-[(pyrazolo[1,5-b]pyridazine-5-carbonylamino)methyl]-6-azaspiro[2.5]octane-6-carboxylate]	15.8 nM	2000 nM	–
Cc1cc(CC(=O)N2CCC3(CC2)CC3CNC(=O)c2cc3ccncc3o2)on1 (centres unmarked) [Example 34, N-[[6-[2-(3-methylisoxazol-5-yl)acetyl]-6-azaspiro[2.5]octan-2-yl]methyl]furo[2,3-c]pyridine-2-carboxamide]	–	379 nM	–
O=C(NCC1CC12CCN(C(=O)CN1CCOCC1)CC2)c1cc2ccncc2o1 (centres unmarked) [Example 51, N-[[6-(2-morpholinoacetyl)-6-azaspiro[2.5]octan-2-yl]methyl]furo[2,3-c]pyridine-2-carboxamide]	–	367 nM	–
CC(C)(C)OC(=O)N1CCC2(CC1)CC(CNC(=O)c1ccc3nccn3c1)C2 [Example 21, tert-butyl 2-((imidazo[1,2-a]pyridine-6-carboxamido)methyl]-7-azaspiro[3.5]nonane-7-carboxylate]	–	2000 nM	–
COCCC(=O)N1CCC2(CC1)CC2CNC(=O)c1cc2ccncc2o1 (centres unmarked) [Example 153, N-[[6-(3-methoxypropanoyl)-6-azaspiro[2.5]octan-2-yl]methyl]furo[2,3-c]pyridine-2-carboxamide]	–	2000 nM	–
O=C(NCC1CC12CCN(C(=O)NC1CCCCC1)CC2)c1cc2ccncc2o1 (centres unmarked) [Example 186, N-[[6-(cyclohexylcarbamoyl)-6-azaspiro[2.5]octan-2-yl)methyl]furo[2,3-c]pyridine-2-carboxamide]	–	732 nM	–
O=C(NCC1CC12CCN(C(=O)CC1CCN(c3ncccn3)CC1)CC2)c1cc2ccncc2o1 (centres unmarked) [Example 147, N-[[6-[2-(1-pyrimidin-2-yl-4-piperidyl)acetyl]-6-azaspiro[2.5]octan-2-yl]methyl]furo[2,3-c]pyridine-2-carboxamide]	–	74.4 nM	–
O=C(NCC1CC12CCN(C(=O)NCc1ccccc1)CC2)c1cc2ccncc2o1 (centres unmarked) [Example 160]	–	2000 nM	–
NC(=O)N1CCCC1C(=O)N1CCC2(CC1)CC2CNC(=O)c1cc2ccncc2o1 (centres unmarked) [Example 64, N-[[6-(1-carbamoylpyrrolidine-2-carbonyl)-6-azaspiro[2.5]octan-2-yl]methyl]furo[2,3-c]pyridine-2-carboxamide]	–	2000 nM	–
N#Cc1cccc(CC(=O)N2CCC3(CC2)CC3CNC(=O)c2cc3cnccc3[nH]2)c1 (centres unmarked) [Example 206, N-[[6-[2-(3-cyanophenyl)acetyl]-6-azaspiro[2.5]octan-2-yl]methyl]-1H-pyrrolo[3,2-c]pyridine-2-carboxamide]	–	2000 nM	–
O=C(NCC1CC12CCN(C(=O)c1c[nH]nc1-n1cnnn1)CC2)c1cc2ccncc2o1 (centres unmarked) [Example 134, N-[[6-[3-(tetrazol-1-yl)-1H-pyrazole-4-carbonyl]-6-azaspiro[2.5]octan-2-yl]methyl]furo[2,3-c]pyridine-2-carboxamide]	–	514 nM	–
CC(C)c1cc(C(=O)N2CCC3(CC2)CC3CNC(=O)c2cc3ccncc3o2)n[nH]1 (centres unmarked) [Example 323, N-[[6-(5-isopropyl-1H-pyrazole-3-carbonyl)-6-azaspiro[2.5]octan-2-yl]methyl]furo[2,3-c]pyridine-2-carboxamide]	–	2000 nM	–
N#Cc1ccc(NC(=O)N2CCC3(CC2)CC3CNC(=O)c2cc3ccncc3o2)cc1 (centres unmarked) [Example 157, N-[[6-[(4-cyanophenyl)carbamoyl]-6-azaspiro[2.5]octan-2-yl)methyl]furo[2,3-c]pyridine-2-carboxamide]	–	2000 nM	–
CC(C)(O)CCC(=O)N1CCC2(CC1)CC2CNC(=O)c1cc2cnccc2[nH]1 (centres unmarked) [Example 397, N-[[6-(4-hydroxy-4-methyl-pentanoyl)-6-azaspiro[2.5]octan-2-yl]methyl]-1H-pyrrolo[3,2-c]pyridine-2-carboxamide]	–	888 nM	–
O=C(NCC1CC12CCN(C(=O)c1ccc3[nH]nnc3c1)CC2)c1cc2ccncc2o1 (centres unmarked) [Example 238, N-[[6-(1H-benzotriazole-5-carbonyl)-6-azaspiro[2.5]octan-2-yl]methyl]furo[2,3-c]pyridine-2-carboxamide]	–	910 nM	–
CC1(OC(=O)N2CCC3(CC2)CC3CNC(=O)N2Cc3ccncc3C2)CCC1 (centres unmarked) [Example 228, (1-methylcyclobutyl) 2-[(1,3-dihydropyrrolo[3,4-c]pyridine-2-carbonylamino)methyl]-6-azaspiro[2.5]octane-6-carboxylate]	–	–	4.74 nM
Cn1nc(C(=O)N2CCC3(CC2)CC3CNC(=O)c2cc3ccncc3o2)cc1C(F)(F)F (centres unmarked) [Example 131, N-[[6-[1-methyl-5-(trifluoromethyl]pyrazole-3-carbonyl]-6-azaspiro[2.5]octan-2-yl]methyl]furo[2,3-c]pyridine-2-carboxamide]	356 nM	326 nM	–
O=C(NCC1CC12CCN(C(=O)c1ccc3cnccc3n1)CC2)c1cc2ccncc2o1 (centres unmarked) [Example 262, N-[[6-(1,6-naphthyridine-2-carbonyl)-6-azaspiro[2.5]octan-2-yl]methyl]furo[2,3-c]pyridine-2-carboxamide]	–	79.5 nM	–
CC(=O)NCC(C)(C)OC(=O)N1CCC2(CC1)CC2CNC(=O)N1Cc2ccncc2C1 (centres unmarked) [Example 358, (2-acetamido-1,1-dimethyl-ethyl)2-[(1,3-dihydropyrrolo[3,4-c]pyridine-2-carbonylamino)methyl]-6-azaspiro[2.5]octane-6-carboxylate]	–	9.19 nM	–
Cn1cnc(C(=O)N2CCC3(CC2)CC3CNC(=O)c2cc3ccncc3o2)c1 (centres unmarked) [Example 105, N-[[6-(1-methylimidazole-4-carbonyl)-6-azaspiro[2.5]octan-2-yl]methyl]furo[2,3-c]pyridine-2-carboxamide]	–	755 nM	–
Cn1cc(-c2ccno2)c(C(=O)N2CCC3(CC2)CC3CNC(=O)N2Cc3ccncc3C2)n1 (centres unmarked) [Example 354, N-[[6-(4-isoxazol-5-yl-1-methyl-pyrazole-3-carbonyl)-6-azaspiro[2.5]octan-2-yl]methyl]-1,3-dihydropyrrolo[3,4-c]pyridine-2-carboxamide]	–	7.07 nM	–
Cn1ccc(C(=O)N2CCC3(CC2)CC3CNC(=O)c2cc3ccncc3o2)n1 (centres unmarked) [Example 109, N-[[6-(1-methylpyrazole-3-carbonyl)-6-azaspiro[2.5]octan-2-yl]methyl]furo[2,3-c]pyridine-2-carboxamide]	–	299 nM	–
O=C(NCC1CC12CCN(C(=O)c1c[nH]nc1C1CC1)CC2)c1cc2ccncc2o1 (centres unmarked) [Example 332, N-[[6-(3-cyclopropyl-1H-pyrazole-4-carbonyl)-6-azaspiro[2.5]oetan-2-yl]methyl]furo[2,3-c]pyridine-2-carboxamide]	–	33.8 nM	–
O=C(NCC1CC12CCN(C(=O)CN1CCCCC1)CC2)c1cc2ccncc2o1 (centres unmarked) [Example 35, N-[[6-[2-(1-piperidyl)acetyl]-6-azaspiro[2.5]octan-2-yl]methyl]furo[2,3-c]pyridine-2-carboxamide]	–	2000 nM	–
Cc1nn(Cc2ccccc2)c(C)c1C(=O)N1CCC2(CC1)CC2CNC(=O)c1cc2ccncc2o1 (centres unmarked) [Example 295, N-[[6-(1-benzyl-3,5-dimethyl-pyrazole-4-carbonyl)-6-azaspiro[2.5]octan-2-yl]methyl]furo[2,3-c]pyridine-2-carboxamide]	–	0.944 nM	–
N#Cc1ccccc1CC(=O)N1CCC2(CC1)CC2CNC(=O)N1Cc2ccncc2C1 (centres unmarked) [Example 357, N-[[6-[2-(2-cyanophenyl)acetyl]-6-azaspiro[2.5]octan-2-yl]methyl]-1,3-dihydropyrrolo[3,4-c]pyridine-2-carboxamide]	–	10.6 nM	–
O=C(NCC1CC12CCN(C(=O)Cn1ccnc1)CC2)c1cc2ccncc2o1 (centres unmarked) [Example 26, N-[[6-(2-imidazol-1-ylacetyl)-6-azaspiro[2.5]octan-2-yl]methyl]furo[2,3-c]pyridine-2-carboxamide]	–	2000 nM	–
O=C(NCC1CC12CCN(C(=O)c1cccnc1)CC2)c1cc2ccncc2o1 (centres unmarked) [Example 103, N-[[6-(pyridine-3-carbonyl)-6-azaspiro[2.5]octan-2-yl]methyl]furo[2,3-c]pyridine-2-carboxamide]	–	2000 nM	–
CN(C)C(=O)CCC(=O)N1CCC2(CC1)CC2CNC(=O)c1cc2ccncc2o1 (centres unmarked) [Example 55, N-[[6-[4-(dimethylamino)-4-oxo-butanoyl]-6-azaspiro[2.5]octan-2-yl]methyl]furo[2,3-c]pyridine-2-carboxamide]	–	2000 nM	–
N#Cc1ccccc1CC(=O)N1CCC2(CC1)CC2CNC(=O)c1cc2ccncc2o1 (centres unmarked) [Example 152, N-[[6-[2-(2-cyanophenyl)acetyl]-6-azaspiro[2.5]octan-2-yl]methyl]furo[2,3-c]pyridine-2-carboxamide]	–	262 nM	–
